Experimental data from EP0213108A2, “Pharmaceutical preparation containing an antihypotonic as the active agent” (Burghart, Kurt, Dr., priority 1985, dated 1987).
Structures can show the parent of a compound that is named as a salt.

Test: Pulse and systolic/diastolic blood pressure over time after sublingual aerosol or oral administration
Type: in vivo
Conditions: hydrochloride, oral
Method: Die raschere Wirksamkeit der erfindungsgemäßen pharmazeutischen Zubereitung relativ zu einer konventionellen Zubereitung wird nachfolgen an Hand eine Ausführungsbeispieles näher erläutert.
In einer alkoholischen Lösung wurden hiebei unter Verwendung von Trichlorfluorkohlenwasserstoff als Treibgas 2,5 mg 1-(3'--Hydroxyphenyl)-2-aminoäthanol als Aerosol sublingual verabreicht. In der nachfolgenden Tabelle I sind unter A die Vergleichswerte für den systolischen und den diastolischen Druck über die Zeit bei Versprühen eines Placebos, unter B die Werte für den systolischen und den diastolischen Druck über die Zeit bei Verabreichung von 2,5 mg Base als Aerosol und unter C die systolischen und diastolischen Druckwerte bei Verabreichung der gleichen Wirksubstanz als Hydrochlorid und oral über die Zeit aufgetragen, wobei mit dem Zeitpunkt 0 Referenzwerte vorangestellt sind. Aus Tabelle B ist hiebei der rasche diastolische Druckanstieg bei sublingualer Verabreichung als Aerosol ersichtlich, wohingegen aus Tabelle C eine Steigerung des diastolischen Drucks frühestens nach Ablauf von 15 min entnommen werden kann.

**Q.** Which “Steigerung des diastolischen Drucks (time of onset)” value does the source give for `NCC(O)c1cccc(O)c1` (stereo not shown) [C, 1-(3'-Hydroxyphenyl)-2-aminoäthanol-hydrochlorid] here?
**A.** ≥ 15 min

**Q.** What about the Diastole (1') of the same compound?
**A.** 8,53 kPa

**Q.** What about the Puls (1') of the same compound?
**A.** 64 min⁻¹

**Q.** What about the Systole (1') of the same compound?
**A.** 14,40 kPa

**Q.** And the Diastole (3')?
**A.** 8,67 kPa

**Q.** And the Puls (3')?
**A.** 66 min⁻¹

**Q.** And the Systole (3')?
**A.** 14,00 kPa

**Q.** And the Diastole (5')?
**A.** 8,53 kPa

**Q.** And the Puls (5')?
**A.** 71 min⁻¹

**Q.** And the Systole (5')?
**A.** 14,27 kPa

**Q.** And the Diastole (7')?
**A.** 8,53 kPa

**Q.** What about the Puls (7') of the same compound?
**A.** 68 min⁻¹

**Q.** And the Systole (7')?
**A.** 14,40 kPa

**Q.** And the Diastole (10')?
**A.** 8,80 kPa

**Q.** And the Puls (10')?
**A.** 66 min⁻¹

**Q.** What about the Systole (10') of the same compound?
**A.** 14,67 kPa

**Q.** And the Diastole (12')?
**A.** 8,80 kPa

**Q.** What about the Puls (12') of the same compound?
**A.** 68 min⁻¹

**Q.** And the Systole (12')?
**A.** 13,87 kPa

**Q.** And the Diastole (15')?
**A.** 8,67 kPa

**Q.** What about the Puls (15') of the same compound?
**A.** 77 min⁻¹

**Q.** What about the Systole (15') of the same compound?
**A.** 14,40 kPa

**Q.** And the Diastole (20')?
**A.** 9,33 kPa

**Q.** And the Puls (20')?
**A.** 52 min⁻¹

**Q.** What about the Systole (20') of the same compound?
**A.** 14,93 kPa

**Q.** And the Diastole (25')?
**A.** 8,80 kPa

**Q.** What about the Puls (25') of the same compound?
**A.** 67 min⁻¹

**Q.** What about the Systole (25') of the same compound?
**A.** 13,73 kPa

**Q.** And the Diastole (30')?
**A.** 9,60 kPa

**Q.** And the Puls (30')?
**A.** 69 min⁻¹

**Q.** And the Systole (30')?
**A.** 14,27 kPa
